# Experiments:
# [1] = biological target: T1, thrombin from human plasma (Homo sapiens, UniProt P00734); assay: Km-based fluorogenic assay for inhibition of thrombin (Example 7); type: biochemical; parameters: from tissue; host or cells: human plasma; conditions: FIGS. 9 and 10
# Procedure: Thrombin from human plasma was obtained from Enzyme System Products, Dublin, Calif., in glycerol:water 1:1, 11.4 mg/ml, 3800 U/mg, MW 36,700, and stored undiluted at -20° C. It was freshly diluted the day of use.
# To dilute for the assay, 0.67 μl (25 Units) of thrombin was pipetted into 5 ml of 0.1 mg/ml BSA (from Pierce, Catalog No. 23209, BSA fraction V, a 2 mg/ml stock in saline with sodium azide), in cold PBS (GIBCO, Catalog No. 14190-136, without calcium chloride and magnesium chloride, pH 7.2) and briefly vortexed, yielding a stock of 5 mU thrombin/μl.
# The substrate was N-tBOC-β-Benzyl-Asp-Pro-Arg-7-Amido4-Methylcoumarin HCl and was obtained from Sigma, Catalog No. B4028, Lot 122H0070, F.W. 770.3. Five mg was dissolved in […] DMSO for a 4 mM stock. The stock was stored in 200 μl aliquots at -20° C. in the dark.
# An alternative substrate was N-tBOC-Val-Pro-Arg-7-Amido4-Methylcoumarin HCl and was obtained from Sigma, Catalog No. B-9385, Lot 53H0805, F.W. of free base 627.7. Five mg was dissolved in 1.863 ml DMSO for a 4 mM stock. The stock was stored in 200 μl aliquots at -20° C. in the dark.
# The fluorescent standard was 7-Amido4-Methylcoumarin and was obtained from Aldrich, Catalog No. 25,737-0, MW 175.19. […]
# Initial readings were taken to ensure exclusion of rogue wells with abnormally high backgrounds (λ excitation at 360 nm, bandwidth […], λ emission, 460 nm, bandwidth 40 nm). Then, 25 μl of a 10×stock of the putative inhibitor were added per well, mixed for 5 seconds and read kinetically for 10 minutes at ambient temperature to assess background interference and/or any increase in hydrolysis of substrate due to inhibitor.
# The thrombin assay was then initiated by adding 25 μl of thrombin/well with a multichannel pipettor and mixed for 5 seconds. The appearence of the fluorescent product (free 7-amido-4-methylcoumarin released from the peptide by thrombin) was followed simultaneously in 48 wells (one reading per minute for 30 minutes, λ excitation at 360 nm, bandwidth 40 nm, λ emission, 460 nm, bandwidth 40 nm). […]
# [2] = test system: anti-KLH-argatroban antibody; assay: Sandwich ELISA using polyclonal anti-KLH-argatroban antibodies; type: binding, rabbit; conditions: rabbit erythrocytes treated with argatroban-C6 free acid
# Procedure: The reaction was quenched by adding hydroxylamine, pH 7.8 to a final concentration of 50 mM and incubating at room temperature for 10 minutes.
# Rabbit anti-HSA monoclonal antibody (Boehringer/Mannheim, catalog no. 605001) diluted 1:5000 in PBS, pH 7.4 or mouse anti-hGPA monoclonal antibody (BioAtlan-tic/CRTS, mAb 5F4, diluted to 10 μg/ml in 0.1 M sodium acetate, pH 4.5 or mAb 3C10 diluted 1:500 or mAb 3E4 diluted 1:1000 in PBS, pH 7.4 - each antibody recognizes a different epitope of hGPA), were used to capture respective proteins by aliquotting 100 μl/well into a NUNC Maxisorp F96 plate (catalog no. 439454). The plates were incubated overnight at 4° C., were then blocked by the addition of 200 μl/well of 1% BSA/PBS and incubated at room temperature for 1 hour. The plates were then washed 5 times by submersion in PBS, pH 7.4.
# Samples were incubated on the plates for 2 hours at room temperature and then were washed as above.
# The plates were then incubated at room temperature for 30 minutes and washed as above.
# Biotinylated goat anti-rabbit IgG (Vector, catalog no. BA1000) was diluted 1:1000 in 1% BSA/PBS, pH 7.4 and 100 μl/well added to all wells. The plates were incubated at room temperature for 30 minutes and washed as above.
# Next, 100 μl/well of ABC-HRP (Vector, catalog no. PK4000) was added, each component diluted 1:500 in PBS, pH 7.4, with 0.1% TWEEN 20 and incubated 30 minutes at room temperature prior to use. The plates were then washed 10 times by submersion in PBS, pH 7.4.
# [3] = biological target: T1, thrombin from human plasma; assay: Km-based 96-well formatted fluorogenic thrombin inhibition assay
# [4] = biological target: T1, thrombin from human plasma; assay: Vmax-based thrombin inhibition assay (200 μM S-2238); type: biochemical; parameters: from tissue; host or cells: human plasma; conditions: 200 μM S-2238, 40 mU thrombin, pH 7.2, 25° C.
# [5] = biological target: T1, thrombin from human plasma; assay: Km-based chromogenic thrombin inhibition assay (S-2238); type: biochemical; parameters: from tissue; host or cells: human plasma; conditions: 8 μM S-2238, 10 mU thrombin, pH 7.2, 35° C., 405 nm
# Description: Specifically, a Km-based chromogenic assay was first employed. […] Measurements at 405 nm are designed to detect the thrombin-induced liberation of p-nitroaniline from the S-2238 substrate. As such, an observed increase in absorbance at 405 nm directly correlates with an increase in hydrolysis of the substrate by thrombin.
structure (smiles),measurement,setting,value
CC1CNc2c(cccc2S(=O)(=O)NC(CCCN=C(N)N)C(=O)N2CCC(C)CC2C(=O)NCCCCCC(=O)O)C1 (stereo not drawn) [compound YL-015-15],thrombin inhibition,[1],not inhibitory
same,plate ELISA signal,[2],did not give a signal above background
same,IC50,[3],~50 nM
CC1CNc2c(cccc2S(=O)(=O)NC(CCCNC(=N)N)C(=O)N2CCC(C)CC2C(=O)NCCCCCCCCCCCC(=O)O)C1 (stereo not drawn) [compound YL-015-10],IC50,[4],5000 to 8000 nM
same,IC50,[5],150 nM
same,IC50,[3],~80 nM
